Columns and labels:
[1] = molecular target: human MGL from HeLa cells (Homo sapiens (Human), UniProt Q99685); test: MGL in vitro activity assay ([glycerol-1,3-3H]-oleyl glycerol cleavage); assay type: biochemical; conditions: 300 nM [Glycerol-1,3-3H]-oleyl glycerol, one hour incubation, endogenous MGL from HeLa cells
Protocol: The assay used to measure the in vitro activity of MGL is adapted from the assay used for another serine hydrolase (FAAH) described in Wilson et al., 2003 (A high-throughput-compatible assay for determining the activity of fatty acid amide hydrolase. Wilson S J, Lovenberg T W, Barbier A J. Anal Biochem. 2003 Jul. 15; 318(2):270-5.). The assay consists of combining endogenously expressed MGL from HeLa cells with test compounds, adding [glycerol-1,3-^3H]-oleyl glycerol, incubating for one hour, and then measuring the amount of cleaved [1,3-^3H]-glycerol that passes through an activated carbon filter. The amount of cleaved, tritiated glycerol passing through the carbon filter is proportional to the activity of the MGL enzyme in a particular well/test condition.
Standard conditions for this assay combine 300 nM [Glycerol-1,3-^3H]-oleyl glycerol with human MGL from HeLa cells and test compounds for one hour, after which the reaction is filtered through activated carbon and tritium is measured in the flow through. The test compound concentration in screening mode is 10 uM, while the highest compound concentration in IC50 assays is determined empirically. MGL is the predominant hydrolase in HeLa cells/cell homogenates.

MGL = MGL (Rattus norvegicus (Rat), UniProt Q8R431); test: In vitro autoradiography (ARG) on frozen normal rat brain sections; assay type: binding; conditions: sagittal rat brain section 20 um, 400 uCi/ml in 50 mM Tris-HCl pH 7.4, 30 min at room temperature
Sequence of MGL (Q8R431 whole entry): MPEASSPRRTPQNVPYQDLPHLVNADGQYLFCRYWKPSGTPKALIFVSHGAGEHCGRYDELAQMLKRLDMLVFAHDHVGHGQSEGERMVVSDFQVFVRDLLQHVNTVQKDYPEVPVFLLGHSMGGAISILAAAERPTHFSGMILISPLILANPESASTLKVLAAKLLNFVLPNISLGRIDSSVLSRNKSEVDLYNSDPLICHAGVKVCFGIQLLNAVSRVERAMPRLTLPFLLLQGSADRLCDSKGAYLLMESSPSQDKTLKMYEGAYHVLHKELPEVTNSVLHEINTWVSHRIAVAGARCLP
Protocol: In vitro ARG using the compound of Example 3 was performed on a frozen normal rat brain sections (sagittal cut, thickness at 20 um). After taken out from freezer for 15 min, the rat brain section was added 250 ul of buffer solution (50 mM Tris-HCl pH=7.4) which contains the compound of Example 3 with the concentration of 400 uCi/ml. The brain section was incubated with the incubation buffer at room temperature for 30 min, was then washed with blank fresh buffer solution for 5 min, repeated 3 times. The brain section was air-dried, exposed to a phosphor screen in a cassette in dark environment for 18 hours. The screen was then scanned then Typhoon™ FLA 7000 Image Analyzer (GE) to generate the autoradiography of the compound of Example 3 on rat brain section (FIG. 2). […] The distribution pattern matches IHC staining pattern described below.
The IHC staining was performed on a frozen normal rat brain section (sagittal cut, thickness at 10 um) which is adjacent to the brain section used in ARG described above. After taken out from freezer for 15 min, the rat brain section was added 4% paraformaldehyde and fixed for 20 min at room temperature. The section was then washed with fresh phosphate buffer solution (PBS, 0.01 M, pH=7.4) for 5 min, repeated 3 times, followed by treatment of hydrogen peroxide solution (3% in PBS) at room temperature for 20 min. […]

Sequence of human MGL from HeLa cells (Q99685 whole entry): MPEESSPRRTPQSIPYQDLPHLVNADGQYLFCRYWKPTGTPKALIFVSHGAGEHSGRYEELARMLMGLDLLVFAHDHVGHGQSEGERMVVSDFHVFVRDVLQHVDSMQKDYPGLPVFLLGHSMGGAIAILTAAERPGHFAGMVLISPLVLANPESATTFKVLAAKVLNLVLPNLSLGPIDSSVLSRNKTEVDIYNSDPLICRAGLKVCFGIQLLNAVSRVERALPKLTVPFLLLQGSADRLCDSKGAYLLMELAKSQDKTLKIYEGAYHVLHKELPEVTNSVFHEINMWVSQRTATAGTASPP

C[C@H]1c2nn(C)c(-c3cc(F)cc(F)c3)c2CCN1C(=O)c1c(F)cccc1Cl [Example 1, (S)-(2-Chloro-6-fluorophenyl)(3-(3,5-difluorophenyl)-2,7-dimethyl-2,4,5,7-tetrahydro-6H-pyrazolo[3,4-c]pyridin-6-yl)methanone]
IC50 [1]: 2.3 pM

C[C@H]1c2nn(C)c(-c3cc(F)cc(F)c3)c2CCN1C(=O)c1c([18F])cccc1Cl [Example 3]
ARG signals (regional distribution) (MGL): high in hippocampus, cortex, cerebellum and thalamus regions and low in brainstem

Source: patent publication US11839663B2, “Radiolabelled MGL pet ligands” (Janssen Pharmaceutica NV, priority 2019, dated 2023)
